Marks after values point to notes of the source that are not given here.
B1: Collagen-III: extracellular matrix (ECM) control from Becton Dickinson Labware (protein, UniProt P02461 154-1221, looked up)
Collagen alpha-1(III) chain: QYDSYDVKSGVAVGGLAGYPGPAGPPGPPGPPGTSGHPGSPGSPGYQGPPGEPGQAGPSGPPGPPGAIGPSGPAGKDGESGRPGRPGERGLPGPPGIKGPAGIPGFPGMKGHRGFDGRNGEKGETGAPGLKGENGLPGENGAPGPMGPRGAPGERGRPGLPGAAGARGNDGARGSDGQPGPPGPPGTAGFPGSPGAKGEVGPAGSPGSNGAPGQRGEPGPQGHAGAQGPPGPPGINGSPGGKGEMGPAGIPGAPGLMGARGPPGPAGANGAPGLRGGAGEPGKNGAKGEPGPRGERGEAGIPGVPGAKGEDGKDGSPGEPGANGLPGAAGERGAPGFRGPAGPNGIPGEKGPAGERGAPGPAGPRGAAGEPGRDGVPGGPGMRGMPGSPGGPGSDGKPGPPGSQGESGRPGPPGPSGPRGQPGVMGFPGPKGNDGAPGKNGERGGPGGPGPQGPPGKNGETGPQGPPGPTGPGGDKGDTGPPGPQGLQGLPGTGGPPGENGKPGEPGPKGDAGAPGAPGGKGDAGAPGERGPPGLAGAPGLRGGAGPPGPEGGKGAAGPPGPPGAAGTPGLQGMPGERGGLGSPGPKGDKGEPGGPGADGVPGKDGPRGPTGPIGPPGPAGQPGDKGEGGAPGLPGIAGPRGSPGERGETGPPGPAGFPGAPGQNGEPGGKGERGAPGEKGEGGPPGVAGPPGGSGPAGPPGPQGVKGERGSPGGPGAAGFPGARGLPGPPGSNGNPGPPGPSGSPGKDGPPGPAGNTGAPGSPGVSGPKGDAGQPGEKGSPGAQGPPGAPGPLGIAGITGARGLAGPPGMPGPRGSPGPQGVKGESGKPGANGLSGERGPPGPQGLPGLAGTAGEPGRDGNPGSDGLPGRDGSPGGKGDRGENGSPGAPGAPGHPGPPGPVGPAGKSGDRGESGPAGPAGAPGPAGSRGAPGPQGPRGDKGETGERGAAGIKGHRGFPGNPGAPGSPGPAGQQGAIGSPGPAGPRGPVGPSGPPGKDGTSGHPGPIGPPGPRGNRGERGSEGSPGHPGQPGPPGPPGAPGPCCGGVGAAAIAGIGGEKAGGFAPYYG

System: MC3T3 cells
Test: Oxygen biosensor assay of adherence and growth of MC3T3 cells on peptide-coated wells
Assay type: cell-based, murine
Conditions: for Abs at 590 nm (relative oxygen consumption), Controls / relative oxygen consumption (Absorbance at 590 nm) / Abs at 590 nm (relative oxygen consumption), MDL-400 Library: 86 hour time point; for Abs at 590 nm (relative oxygen consumption), Controls: 25 µl stock of ECM or known peptide control dried in well, same plate; for Abs at 590 nm (relative oxygen consumption), MDL-400 Library: single peptide, 50 µl of 1 mM stock dried in well, value normalized to the well's initial reading; for impact on MC3T3 growth (result in words): peptide or control adsorbed to surface, compared with uncoated surface or controls
Experimental: To identify peptides in a particular library which positively affected cell growth in cell culture, the library was screened in a growth assay. The selected cells were anchorage-dependent MC3T3 cells, which were grown on tissue culture surfaces which had been pre-coated with peptides of the present invention. The screening medium used to evaluate peptides in the library was a low serum medium allowing evaluation of peptide effects with low interference from undefined materials present in the medium. In the present work, growth of MC3T3 cells was assessed in the presence and absence of the peptides in the library which were present in the form of a dried film on a tissue culture substrate. Growth was evaluated in a basal medium rich in amino acids and containing the necessary vitamins, metals and simple carbon source. After an appropriate incubation time, growth of each peptide-supplemented culture is compared to growth of the unsupplemented culture. The extent of growth was evaluated using a Becton Dickinson oxygen sensor to detect oxygen consumption by the cells. The cell number in each well containing a particular peptide was then assessed indirectly with a flurometer which measured fluorescence generated from a fluoroescent dye using band-pass filters of 465 nm for excitation and 590 nm for emission.
Briefly, the oxygen biosensor is based upon the fluoroscence of ruthenium dye which is quenched in the presence of oxygen. The dye is immobilized within an inert but highly permeable silicone matrix located at the bottom of microtiter wells. […] (Wodnicka, M., Guarino, R. D., Hemperly, J. J. Temmins, M. R., Stitt, D. and Pitner, J. B. (2000) J. of Biomolecular Screening 5:141-152)
MC3T3-E1 is a clonal line of murine calvaria-derived osteoblast (establishement of a clonal osteogenic Cell Line from Newborn Mouse Calvaria in Jpn J. Oral Biol 23, 899 (1981)).
MC3T3 cells were maintained in αMEM (GIBCO Catalog No: 12561) supplemented with 2% fetal calf serum (FCS, inactivated) and 100 units or μg/ml of penicillin/streptomycin for one month prior to use. Cells were routinely seeded at a density of approximately 1×10^4 cells per 20 ml culture media which was placed in a 250 ml canted neck polystyrene tissue culture treated flask (Becton Dickinson). Cells were cultured until approximately 2×10^6 cells were obtainable from each flask, which were resuspended in 5 ml of αMEM with 2% FCS for a final cell concentration of about 5×10^4 cells per 150 μl for peptide screening.
For determining the biological effects of library peptides and appropriate controls on MC3T3 cells, cells (5×10^4/150 μl) were grown in an 96 well oxygen sensor plate treated as described below:
Peptides for screening were obtained from either a MDL-400 library or an MDL-100 library. Fifty microliters of peptides at a 1 mM stock concentration in phosphate buffered saline were placed in wells of a 96 well oxygen sensor plate and dried in a reverse flow air hood overnight […].
Vitrogen-collagen-I was obtained from Cohesion (Palo Alto, Calif., Catalog No. FXP-019) and fibronectin was obtained from Sigma (Catalog No. F-0895). All other extracellular matrix (ECM) compounds were obtained from Becton Dickinson Labware, (Bedford, Mass.). Polylysine was obtained from Becton Dickinson Labware and RGDSP-rhodamine was from AnaSpec Inc. (San Jose, Calif.). Extracellular matrix components (ECM) or known peptides were used at the following stock concentrations:
Twenty-five microliters of stock concentrations of controls and 25 μl of phosphate buffered saline were placed in wells of a 96 well oxygen sensor plate and dried overnight as described above.
Cells grown on 96 well oxygen sensor plates treated as described above were monitored for growth using a Becton Dickinson oxygen biosensor. Growth was monitored at the following time points: 1 hours, 24 hours, 32 hours, 48 hours and 86 hours. Media was changed every three days. […]

Molecule	Abs at 590 nm (relative oxygen consumption), Controls	Abs at 590 nm (relative oxygen consumption), MDL-400 Library	impact on MC3T3 growth (result in words)	other results
Collagen-V: extracellular matrix (ECM) control from Becton Dickinson Labware [reference compound]	1.76	–	–	–
Collagen-IV: extracellular matrix (ECM) control from Becton Dickinson Labware [reference compound]	3.14	–	–	relative oxygen consumption (Absorbance at 590 nm): 3.14
AFKIF (Synthetic peptide selected for biological activity) [SEQ ID NO:9]	–	2.78*	significant difference in growth	relative oxygen consumption (Absorbance at 590 nm): 2.78
VFPFK (Synthetic peptide selected for biological activity) [SEQ ID NO:7]	–	2.06*	significant difference in growth	–
AKIFF (Synthetic peptide selected for biological activity) [SEQ ID NO:8]	–	2.08*	significant difference in growth	–
FAKFI (Synthetic peptide selected for biological activity) [SEQ ID NO:11]	–	2.06*	significant difference in growth	–
QVVAK (Synthetic peptide selected for biological activity) [SEQ ID NO:4]	–	2.11*	significant difference in growth	–
Laminin [reference compound]	2.65	–	–	relative oxygen consumption (Absorbance at 590 nm): 2.65
FIKFG (Synthetic peptide selected for biological activity) [SEQ ID NO:2]	–	2.38*	significant difference in growth	impact on MC3T3 growth (result in words) (listed as FIKFG): positive
AFFKI (Synthetic peptide selected for biological activity) [SEQ ID NO:6]	–	2.01*	significant difference in growth	–
Fibronectin [reference compound]	2.12	–	–	–
RGDSP-rhodamine [reference compound]	1.25	–	–	–
FIFAK (Synthetic peptide selected for biological activity) [SEQ ID NO:3]	–	2.08*	significant difference in growth	–
Polylysine [reference compound]	1.08	–	–	–
IFFKG (Synthetic peptide selected for biological activity) [SEQ ID NO:1]	–	2.53*	significant difference in growth	relative oxygen consumption (Absorbance at 590 nm): 2.53; impact on MC3T3 growth (result in words) (listed as IFFKG): positive
KFAFI (Synthetic peptide selected for biological activity) [SEQ ID NO:10]	–	2.11*	significant difference in growth	–
B1	1.45	–	–	–
